Source: patent publication US9560852B2, “Combinations of biological control agents and insecticides or fungicides” (Bayer Intellectual Property GmbH, priority 2008, dated 2017)

Tests used:
Format in all cases: in vivo
cotton seed = experiment: Root system enhancement by neonicotinoid seed treatment, WinRhizo root analysis; conditions: 28 days after planting, fungicide base plus insecticide seed treatment
Description: In this experiment cotton seed was treated with a fungicide base and one of three commonly used neonicotinoid insecticides: imidacloprid (sold under the trademark GAUCHO 600@0.375 mg ai/seed), clothianidin (sold under the trademark PONCHO 600@0.375 mg ai/seed), and thiomethoxam (sold under the trademark CRUISER@0.34 mg ai/seed).
Fifty seeds from each of the four treatments were planted. […] Seedlings were harvested 28 days after planting and analyzed using the WinRhizo® root analysis system. There was no significant difference in germination.
In Table 1, a comparison of Length, Surface Area, Volume, and Tips/Forks/Crossings, was made through the analysis of 40-45 plants per treatment and by averaging 10 repetitions bracketing the median for each category.

[1] = Soybean seed treatment in soil infested with Soybean Cyst nematodes, height and WinRhizo root system analysis; conditions: SCN-infested soil versus standard soil, same treatment
Text: (§1) Soybeans (Variety-S2743-4RR) were planted with a base fungicide package and imidacloprid (sold under the trademark GAUCHO 600@62.5 gm AI/100 kg), a biological nematicide, or a combination of both. The seed were then planted in standard soil and soil infested with Soybean Cyst nematodes. Plants were harvested 28 days later (˜50 plants/treatment/soil type) and compared by height and by a WinRhizo® root system analysis (length, surface area, volume, tips, forks, and crossings (T/F/C))
(§2) The final column of Table 2 compares the total average percent difference in each of the treatments with soybean cyst nematode pressure. The plants with the insecticide alone fared the worst with stunted growth both above and below the soil and a total average reduction of 53%. […] The best overall treatment contained both the biological nematicide and the insecticide and there was only an 8% difference in overall plant development.

Soybean Cyst nematodes = experiment: as above
Text: as §1, §2

[2] = test system: Soybeans (Variety-S2743-4RR); experiment: Soybean seed treatment in standard soil, height and WinRhizo root system analysis; conditions: 28 days
Text: as §1

[3] = soil infested with Soybean Cyst nematodes (SCN), 28 days

| SMILES | Length (cotton seed) | SurfArea (cotton seed) | T/F/C (Tips/Forks/Crossings) (cotton seed) | Volume (cotton seed) | % difference (total average percent difference with soybean cyst nematode pressure) ([1]; listed as NI) | % difference (total average percent difference with soybean cyst nematode pressure) ([1]; listed as insecticide) | direct nematicidal activity (Soybean Cyst nematodes; insecticide alone) | Height (Soybean Cyst nematodes; [3]) | Length (Soybean Cyst nematodes; [3]) | SurfArea (Soybean Cyst nematodes; [3]) | T/F/C (Soybean Cyst nematodes; [3]) | Volume (Soybean Cyst nematodes; [3]) | Height [2] | Length [2] | SurfArea [2] | T/F/C [2] | Volume [2] |
| --- | --- | --- | --- | --- | --- | --- | --- | --- | --- | --- | --- | --- | --- | --- | --- | --- | --- |
| CN/C(=N\[N+](=O)[O-])NCc1cnc(Cl)s1 [Clothianidin, clothianidin] | 88.11 a cm | 16.77 a cm^2 | 93.93 a | 0.29 a cm^3 | – | – | – | – | – | – | – | – | – | – | – | – | – |
| CN1COCN(Cc2cnc(Cl)s2)/C1=N\[N+](=O)[O-] [Thiomethoxam, thiomethoxam] | 95.01 a cm | 17.43 a cm^2 | 77.17 a | 0.28 a cm^3 | – | – | – | – | – | – | – | – | – | – | – | – | – |
| O=[N+]([O-])NC1=NCCN1Cc1ccc(Cl)nc1 [Imidacloprid, imidacloprid] | 92.56 a cm | 20.11 a cm^2 | 85.60 a | 0.35 a cm^3 | 52.52% | 53% | no direct nematicidal activity | 19.09 cm | 167.41 cm | 44.51 cm^2 | 283.90 | 0.97 cm^3 | 26.78 cm | 281.93 cm | 66.40 cm^2 | 497.68 | 1.25 cm^3 |
